# Data reported in PubChem BioAssay (NCI).
#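 Assay format: 96-well plates, 48-hour exposure. TGI marks complete inhibition of growth.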
# How the values were obtained:
# Assay in all cases: growth of human tumour cells (NCI), 48 h
# SK-MEL-2 melanoma = tested on: SK-MEL-2 melanoma
# ACHN renal = tested on: ACHN renal
# U251 CNS = tested on: U251 CNS
# MALME-3M melanoma = tested on: MALME-3M melanoma
# HT29 colon = tested on: HT29 colon
# HL-60(TB) leukemia = tested on: HL-60(TB) leukemia
# SK-OV-3 ovarian = tested on: SK-OV-3 ovarian
# RPMI-8226 leukemia = tested on: RPMI-8226 leukemia
# COLO 205 colon = tested on: COLO 205 colon
# HS 578T breast = tested on: HS 578T breast
smiles,measurement,setting,value
Cc1c[n+]2c3ccccc3c3ccccc3c2s1,TGI,SK-MEL-2 melanoma,25.7 µM
same,TGI,ACHN renal,> 100 µM
same,TGI,U251 CNS,12.3 µM
same,TGI,MALME-3M melanoma,7.87 µM
same,TGI,HT29 colon,> 100 µM
same,TGI,HL-60(TB) leukemia,> 61.6 µM
same,TGI,SK-OV-3 ovarian,> 71.4 µM
same,TGI,RPMI-8226 leukemia,57.8 µM
same,TGI,COLO 205 colon,26.1 µM
O=c1c2ccccc2[nH]n1Cc1ccccc1,TGI,SK-MEL-2 melanoma,> 100 µM
same,TGI,HS 578T breast,> 100 µM
same,TGI,ACHN renal,> 100 µM
same,TGI,U251 CNS,> 100 µM
same,TGI,HT29 colon,> 100 µM
same,TGI,HL-60(TB) leukemia,> 100 µM
same,TGI,SK-OV-3 ovarian,> 100 µM
same,TGI,RPMI-8226 leukemia,> 100 µM
same,TGI,COLO 205 colon,> 100 µM
OC1c2ccccc2CCC1CN1CCN(CCOC(c2ccc(F)cc2)c2ccc(F)cc2)CC1 (centres undefined),TGI,SK-MEL-2 melanoma,36.3 µM
same,TGI,HS 578T breast,45.8 µM
same,TGI,ACHN renal,> 100 µM
same,TGI,U251 CNS,28.3 µM
same,TGI,MALME-3M melanoma,32.4 µM
same,TGI,SK-OV-3 ovarian,> 100 µM
same,TGI,RPMI-8226 leukemia,64.4 µM
same,TGI,COLO 205 colon,3.44 µM
COc1cc(C2c3cc4c(cc3[C@@H](Nc3cccc(CO)c3)C3COC(=O)[C@H]23)OCO4)cc(OC)c1O (some centres undefined),TGI,SK-MEL-2 melanoma,6.2 µM
same,TGI,MALME-3M melanoma,11.4 µM
same,TGI,HT29 colon,5.15 µM
same,TGI,HL-60(TB) leukemia,0.343 µM
same,TGI,SK-OV-3 ovarian,9.04 µM
same,TGI,RPMI-8226 leukemia,2.12 µM
same,TGI,COLO 205 colon,3.72 µM
O=P1(c2ccccc2)c2ccccc2-c2ccccc21,TGI,SK-MEL-2 melanoma,> 100 µM
same,TGI,HS 578T breast,> 100 µM
same,TGI,HL-60(TB) leukemia,> 100 µM
same,TGI,SK-OV-3 ovarian,> 100 µM
same,TGI,RPMI-8226 leukemia,> 100 µM
same,TGI,COLO 205 colon,> 100 µM
COC(=O)N1CC(=O)C(C(=O)NC23CC4CC(CC(C4)C2)C3)C1 (centres undefined),TGI,SK-MEL-2 melanoma,> 100 µM
same,TGI,ACHN renal,> 100 µM
same,TGI,U251 CNS,> 100 µM
same,TGI,MALME-3M melanoma,> 100 µM
same,TGI,HT29 colon,> 100 µM
same,TGI,HL-60(TB) leukemia,> 100 µM
same,TGI,RPMI-8226 leukemia,> 100 µM
same,TGI,COLO 205 colon,> 100 µM
CSC1NC(c2ccccc2)=C(C#N)C(=O)N1C1OCC(OC(C)=O)C(OC(C)=O)C1OC(C)=O (centres undefined),TGI,HS 578T breast,> 100 µM
same,TGI,ACHN renal,> 100 µM
same,TGI,U251 CNS,> 100 µM
same,TGI,MALME-3M melanoma,> 100 µM
same,TGI,HT29 colon,> 100 µM
same,TGI,SK-OV-3 ovarian,> 100 µM
same,TGI,RPMI-8226 leukemia,> 100 µM
same,TGI,COLO 205 colon,> 100 µM
CC(=O)Nc1ccc2nc(-c3ccccn3)c(-c3ccccn3)nc2c1,TGI,SK-MEL-2 melanoma,> 100 µM
same,TGI,HS 578T breast,> 100 µM
same,TGI,ACHN renal,> 100 µM
same,TGI,U251 CNS,> 100 µM
same,TGI,MALME-3M melanoma,> 100 µM
same,TGI,HL-60(TB) leukemia,> 100 µM
same,TGI,RPMI-8226 leukemia,> 100 µM
same,TGI,COLO 205 colon,> 100 µM
NS(=O)(=O)c1nnc(NC(=O)C23CC4CC(CC(C4)C2)C3)s1,TGI,SK-MEL-2 melanoma,> 100 µM
same,TGI,HS 578T breast,> 100 µM
same,TGI,ACHN renal,> 100 µM
same,TGI,U251 CNS,> 100 µM
same,TGI,MALME-3M melanoma,> 100 µM
same,TGI,SK-OV-3 ovarian,> 100 µM
same,TGI,RPMI-8226 leukemia,> 100 µM
same,TGI,COLO 205 colon,> 100 µM
COc1ccc(C2=NN(c3ccccc3)C[N+](c3ccc(C)cc3)=N2)cc1,TGI,ACHN renal,> 100 µM
same,TGI,U251 CNS,45.3 µM
same,TGI,MALME-3M melanoma,> 100 µM
same,TGI,HT29 colon,> 100 µM
same,TGI,HL-60(TB) leukemia,> 100 µM
same,TGI,RPMI-8226 leukemia,67.4 µM
same,TGI,COLO 205 colon,> 100 µM
CSCC[C@@H]1C(=O)N(C)[C@H](C(C)(C)C)N1C(=O)c1ccccc1,TGI,SK-MEL-2 melanoma,> 100 µM
same,TGI,U251 CNS,> 100 µM
same,TGI,MALME-3M melanoma,> 100 µM
same,TGI,HT29 colon,> 100 µM
same,TGI,HL-60(TB) leukemia,> 100 µM
same,TGI,SK-OV-3 ovarian,> 100 µM
same,TGI,RPMI-8226 leukemia,> 100 µM
same,TGI,COLO 205 colon,> 100 µM
CC(C)C(=O)N1Cc2cc(Cl)cc(Cl)c2OC(=O)c2ccccc21,TGI,SK-MEL-2 melanoma,50 µM
same,TGI,ACHN renal,72.9 µM
same,TGI,MALME-3M melanoma,49.3 µM
same,TGI,HT29 colon,> 100 µM
same,TGI,HL-60(TB) leukemia,57.6 µM
same,TGI,SK-OV-3 ovarian,84.5 µM
same,TGI,RPMI-8226 leukemia,96.8 µM
same,TGI,COLO 205 colon,> 100 µM
c1cc(-c2ccc(-c3ccc(-c4ccc(-c5ccncc5)o4)cc3)o2)ccn1,TGI,HS 578T breast,> 100 µM
same,TGI,ACHN renal,64.6 µM
same,TGI,U251 CNS,35.3 µM
same,TGI,MALME-3M melanoma,34.7 µM
same,TGI,HT29 colon,44.7 µM
same,TGI,HL-60(TB) leukemia,43.5 µM
same,TGI,SK-OV-3 ovarian,45.2 µM
same,TGI,COLO 205 colon,30.2 µM
CC1CN=C(NS(=O)(=O)c2cc(C(=O)Nc3ccc(Cl)cc3)c(Cl)cc2S)NN1 (centres undefined),TGI,SK-MEL-2 melanoma,71.2 µM
same,TGI,ACHN renal,> 100 µM
same,TGI,U251 CNS,> 100 µM
same,TGI,MALME-3M melanoma,39.1 µM
same,TGI,HT29 colon,> 100 µM
same,TGI,HL-60(TB) leukemia,> 100 µM
same,TGI,SK-OV-3 ovarian,> 100 µM
same,TGI,RPMI-8226 leukemia,70.8 µM
same,TGI,COLO 205 colon,> 100 µM
CCOC(=O)CC(c1ccccc1)C(C)(C(=O)OCC)C(=O)OCC (centres undefined),TGI,SK-MEL-2 melanoma,> 100 µM
same,TGI,HS 578T breast,> 100 µM
same,TGI,ACHN renal,> 100 µM
same,TGI,U251 CNS,> 100 µM
same,TGI,MALME-3M melanoma,> 100 µM
same,TGI,HT29 colon,> 100 µM
same,TGI,HL-60(TB) leukemia,> 100 µM
same,TGI,SK-OV-3 ovarian,> 100 µM
same,TGI,COLO 205 colon,> 100 µM
O=C(Nc1ccc(Cl)cc1C(F)(F)F)C(=O)C1CCCS1(=O)=O (centres undefined),TGI,ACHN renal,> 100 µM
same,TGI,U251 CNS,> 100 µM
same,TGI,MALME-3M melanoma,> 100 µM
same,TGI,HT29 colon,> 100 µM
same,TGI,HL-60(TB) leukemia,> 100 µM
same,TGI,RPMI-8226 leukemia,> 100 µM
same,TGI,COLO 205 colon,> 100 µM
N#CC(N=Nc1ccccc1C(=O)O)C(N)=O (centres undefined),TGI,SK-MEL-2 melanoma,> 100 µM
same,TGI,ACHN renal,> 100 µM
same,TGI,U251 CNS,> 100 µM
same,TGI,MALME-3M melanoma,> 100 µM
same,TGI,HT29 colon,> 100 µM
same,TGI,HL-60(TB) leukemia,> 100 µM
same,TGI,RPMI-8226 leukemia,> 100 µM
CC12C3C4C1C1C2C3C41CO (centres undefined),TGI,SK-MEL-2 melanoma,> 100 µM
same,TGI,ACHN renal,> 100 µM
same,TGI,U251 CNS,> 100 µM
same,TGI,HT29 colon,> 100 µM
same,TGI,HL-60(TB) leukemia,> 100 µM
same,TGI,SK-OV-3 ovarian,> 100 µM
same,TGI,COLO 205 colon,> 100 µM
COC(=O)c1cc(C(=O)OC)c(CC(=O)C(=O)NC2C3CC4CC(C3)CC2C4)nc1CC(=O)C(=O)NC1C2CC3CC(C2)CC1C3 (centres undefined),TGI,SK-MEL-2 melanoma,> 100 µM
same,TGI,ACHN renal,> 100 µM
same,TGI,U251 CNS,> 100 µM
same,TGI,MALME-3M melanoma,> 100 µM
same,TGI,HT29 colon,> 100 µM
same,TGI,HL-60(TB) leukemia,> 100 µM
same,TGI,SK-OV-3 ovarian,> 100 µM
same,TGI,RPMI-8226 leukemia,> 100 µM
same,TGI,COLO 205 colon,> 100 µM
COCCN(CCNC(=O)c1cccc2c(N)c3cccc(C)c3nc12)CCOC,TGI,SK-MEL-2 melanoma,18.7 µM
same,TGI,HS 578T breast,9.86 µM
same,TGI,ACHN renal,13.5 µM
same,TGI,U251 CNS,> 63.6 µM
same,TGI,MALME-3M melanoma,1.96 µM
same,TGI,HT29 colon,10.2 µM
same,TGI,SK-OV-3 ovarian,42.1 µM
same,TGI,RPMI-8226 leukemia,5.91 µM
same,TGI,COLO 205 colon,2.13 µM
C1CSCCSCCCSC2CCCCC2SC1 (centres undefined),TGI,U251 CNS,> 100 µM
same,TGI,HT29 colon,60.9 µM
same,TGI,HL-60(TB) leukemia,95.3 µM
same,TGI,SK-OV-3 ovarian,> 100 µM
same,TGI,RPMI-8226 leukemia,> 100 µM
same,TGI,COLO 205 colon,> 100 µM
COc1cc(C)c(/C=C2/N=C(c3ccccc3)OC2=O)c([N+](=O)[O-])c1OC,TGI,SK-MEL-2 melanoma,> 100 µM
same,TGI,ACHN renal,> 100 µM
same,TGI,U251 CNS,> 100 µM
same,TGI,MALME-3M melanoma,> 100 µM
same,TGI,HT29 colon,> 100 µM
same,TGI,HL-60(TB) leukemia,> 100 µM
same,TGI,SK-OV-3 ovarian,> 100 µM
same,TGI,RPMI-8226 leukemia,> 100 µM
same,TGI,COLO 205 colon,> 100 µM
O=C(CN(C(=O)OC12CC3CC(CC(C3)C1)C2)C(=O)OC12CC3CC(CC(C3)C1)C2)Oc1ccc([N+](=O)[O-])cc1,TGI,HS 578T breast,> 100 µM
same,TGI,ACHN renal,> 100 µM
same,TGI,U251 CNS,> 100 µM
same,TGI,MALME-3M melanoma,> 100 µM
same,TGI,HT29 colon,> 100 µM
same,TGI,SK-OV-3 ovarian,> 100 µM
same,TGI,COLO 205 colon,> 100 µM
CCC(C)C(N)C(=O)NC(CC(N)=O)C(=O)NC(CC(C)C)C(=O)NC(CCCCN)C(=O)NC(C)C(=O)NC(CC(C)C)C(=O)NC(C)C(=O)NC(C)C(=O)NC(CC(C)C)C(=O)NC(C)C(=O)NC(CCCCN)C(=O)NC(CCCCN)C(=O)NC(C(=O)NC(CC(C)C)C(N)=O)C(C)CC (centres undefined),TGI,SK-MEL-2 melanoma,36.8 µM
same,TGI,ACHN renal,27.2 µM
same,TGI,U251 CNS,30.9 µM
same,TGI,MALME-3M melanoma,10.7 µM
same,TGI,HT29 colon,35.9 µM
same,TGI,HL-60(TB) leukemia,7.23 µM
same,TGI,SK-OV-3 ovarian,33.7 µM
same,TGI,COLO 205 colon,32.1 µM
